Data set [1] in a line: Film retention rate / solvent resistance: UV-vis absorption of heat-treated film after immersion in cyclohexanone. In kind it is physicochemical. Particulars: film from 4 wt % solution in cyclohexanone, 100 nm on quartz, heat-treated 190° C. to 200° C. in nitrogen 30 minutes, immersed in cyclohexanone 10 minutes; higher absorbance = more film retained. As to the method:
Thereafter, after the substrate was heat-treated at a temperature of 190° C. to 200° C. in a nitrogen atmosphere for 30 minutes, the UV-vis absorption spectrum was measured. Subsequently, the same sample was immersed in cyclohexanone for 10 minutes and remove, the solvent was dried from the sample, and then the UV-vis absorption spectrum was also measured.
In the process of manufacturing the device, the film is retained while being cured during the heat treatment. The higher absorbance means that a relatively more residue remains on the film.

Data set [2] in a line: Solubility at 5 wt % relative to each solvent. The source says:
In a solution process organic light emitting device, when an ink solvent is selected for the process, the ink solvent needs to dissolve both a host and a dopant.

The mark [3] stands for this setting: 5 wt % relative to solvent, Acetone.
Setting [4] is: 5 wt % relative to solvent, Dichloromethane.
Setting [5] is: 5 wt % relative to solvent, Toluene.

Like-named read-outs stand apart in the source and are kept apart here.

For the compound `C=Cc1ccc([B-](c2c(F)c(F)c(C(F)(F)F)c(F)c2F)(c2c(F)c(F)c(C(F)(F)F)c(F)c2F)c2c(F)c(F)c(C(F)(F)F)c(F)c2F)cc1.Cc1ccc([I+]c2ccc(C(C)C)cc2)cc1` [Comparative Compound 1, (4-isopropylphenyl) (p-tolyl) iodonium tris(2,3,5,6-tetrafluoro-4-(trifluoromethyl)phenyl) (4-vinylphenyl)borate, reference compound], the “Absorbance @ 350 nm” value in data set [1] was found to be 0.483.
Regarding `C=Cc1c(F)c(F)c([B-](c2c(F)c(F)c(C(F)(F)F)c(F)c2F)(c2c(F)c(F)c(C(F)(F)F)c(F)c2F)c2c(F)c(F)c(C(F)(F)F)c(F)c2F)c(F)c1F.Cc1ccc([I+]c2ccc(C(C)C)cc2)cc1` [Comparative Compound 2, (4-isopropylphenyl) (p-tolyl)iodonium tris(2,3,5,6-tetrafluoro-4-(trifluoromethyl)phenyl) (2,3,5,6-tetrafluoro-4-vinylphenyl) borate, reference compound], the “Absorbance @ 350 nm” value in data set [1] came out at 0.526.
Consider `Cc1ccc([I+]c2ccc(C(C)C)cc2)cc1.Fc1c(F)c([B-](c2c(F)c(F)c(C(F)(F)F)c(F)c2F)(c2c(F)c(F)c(C(F)(F)F)c(F)c2F)c2c(F)c(F)c(C(F)(F)F)c(F)c2F)c(F)c(F)c1-c1ccc2c(c1)CC2` [Comparative Compound 3, (4-isopropylphenyl) (p-tolyl)iodonium(4-(bicyclo[4.2.0]octa-1,3,5-trien-3-yl)-2,3,5,6-tetrfluorophenyl)tris(2,3,5,6-tetrafluoro-4-(trifluoromethyl)phenyl)borate, reference compound], for which the “Absorbance @ 350 nm” value in data set [1] amounted to 0.392.
`C=Cc1ccc(-c2c(F)c(F)c([B-](c3c(F)c(F)c(-c4ccc(C=C)cc4)c(F)c3F)(c3c(F)c(F)c(-c4ccc(C=C)cc4)c(F)c3F)c3c(F)c(F)c(-c4ccc(C=C)cc4)c(F)c3F)c(F)c2F)cc1.Cc1ccc([I+]c2ccc(C(C)C)cc2)cc1` [Comparative Compound 4, (4-isopropylphenyl) (p-tolyl)iodonium tetrakis(2,3,5,6-tetrafluoro-4′-vinyl-[1,1′-biphenyl]-4-yl) borate, reference compound]: in data set [2] (setting [3]), the “Solubility in Acetone” value is listed as “Dissolved”. The “Solubility in Dichloromethane” value in data set [2] (setting [4]) is “Dissolved”. For the same compound, the “Solubility in Toluene” value in data set [2] (setting [5]) is given as “Insoluble”. In addition, the “Absorbance @ 350 nm” value in data set [1] was 0.467.
On to `C=Cc1ccc(-c2cc(-c3ccc(C=C)cc3)cc(-c3c(F)c(F)c(-c4c(F)c(F)c([B-](c5c(F)c(F)c(C(F)(F)F)c(F)c5F)(c5c(F)c(F)c(C(F)(F)F)c(F)c5F)c5c(F)c(F)c(C(F)(F)F)c(F)c5F)c(F)c4F)c(F)c3F)c2)cc1.Cc1ccc([I+]c2ccc(C(C)C)cc2)cc1` [Compound 3, (4-isopropylphenyl) (p-tolyl)iodonium (2″,2′″,3″,13′″,5″,5′″,6″,6′″-octafluoro-4-vinyl-5′-(4-vinylphenyl)-[1,1′:3′,1″:4″,1′″-quarterphenyl]-4′″-yl)tris(2,3,5,6-tetrafluoro-4-(trifluoromethyl)phenyl)borate], for which, in data set [2], the “Solubility in Acetone” value was “Dissolved”, the “Solubility in Dichloromethane” value is “Dissolved” and the “Solubility in Toluene” value is on record as “Dissolved”. In addition, the “Absorbance @ 350 nm” value in data set [1] stood at 0.813.
For the compound `C=Cc1cc(C=C)cc(-c2c(F)c(F)c(-c3c(F)c(F)c([B-](c4c(F)c(F)c(C(F)(F)F)c(F)c4F)(c4c(F)c(F)c(C(F)(F)F)c(F)c4F)c4c(F)c(F)c(C(F)(F)F)c(F)c4F)c(F)c3F)c(F)c2F)c1` [Compound 5], the “Solubility in Acetone” value in data set [2] (setting [3]) is given as “Dissolved”. Also, the “Solubility in Dichloromethane” value in data set [2] (setting [4]) is given as “Dissolved”. For the same compound, the “Solubility in Toluene” value in data set [2] (setting [5]) is listed as “Dissolved”. Moreover, the “Absorbance @ 350 nm” value in data set [1] turned out to be 0.801.
As to `C=Cc1ccc(-c2c(F)c(F)c(-c3c(F)c(F)c([B-](c4c(F)c(F)c(C(F)(F)F)c(F)c4F)(c4c(F)c(F)c(C(F)(F)F)c(F)c4F)c4c(F)c(F)c(C(F)(F)F)c(F)c4F)c(F)c3F)c(F)c2F)c2ccccc12` [Compound 7], the “Absorbance @ 350 nm” value in data set [1] is 0.603.
With `Fc1c(F)c(-c2c(F)c(F)c([B-](c3c(F)c(F)c(C(F)(F)F)c(F)c3F)(c3c(F)c(F)c(C(F)(F)F)c(F)c3F)c3c(F)c(F)c(C(F)(F)F)c(F)c3F)c(F)c2F)c(F)c(F)c1-c1ccc2c(c1)CC2` [Compound 8], the “Absorbance @ 350 nm” value in data set [1] was 0.546.
As to “(4-isopropylphenyl) (p-tolyl)iodonium (2,3,5,6-tetrafluoro-4′-vinyl-[1,1′-biphenyl]-4-yl)tris(2,3,5,6-tetrafluoro-4-(trifluoromethyl)phenyl)borate [Compound 1]”, the “Absorbance @ 350 nm” value in data set [1] worked out at 0.802.

Source of the values: US20240279249A1, “Compound, Coating Composition Comprising Same, Organic Light-Emitting Device Using Same, and Manufacturing Method Therefor” (LG Chem, Ltd., priority 2021, published 2024).
